24 compounds from US6806276B2, “2-oxoquinoline compounds and pharmaceutical uses thereof” (Japan Tobacco Inc., priority 1999, dated 2004) can be followed below.

Structures can show the parent of a compound that is named as a salt. Where two headings read alike, the source gives them in different places.

The test system of assay [1] is carrageenin-induced paw edema. Briefly: Carrageenin-induced paw edema model (in vivo). Further details: species or system C57BL/6J mice. Particulars: mice, oral in olive oil 1 hour before carrageenin, paw volume 3 hours later. As to the method:
[2] Carrageenin-induced paw edema model (in vivo)
C57BL/6J mice (6 to 8 weeks of age) were used. […] After one hour of the administration, 50 μl of 1% solution of carrageenin in normal saline was administered intradermally at foot pad of the right hind paw. Three hours later, the volume of the right hind paw was measured and compared with the initial volume.

For assay [2], the target named is T1, human central type cannabinoid receptor (hCB1) (Homo sapiens, UniProt P21554).
T1 construct: expressed in transfected cells; host or cells: CHO cells
T1 sequence (P21554 whole entry): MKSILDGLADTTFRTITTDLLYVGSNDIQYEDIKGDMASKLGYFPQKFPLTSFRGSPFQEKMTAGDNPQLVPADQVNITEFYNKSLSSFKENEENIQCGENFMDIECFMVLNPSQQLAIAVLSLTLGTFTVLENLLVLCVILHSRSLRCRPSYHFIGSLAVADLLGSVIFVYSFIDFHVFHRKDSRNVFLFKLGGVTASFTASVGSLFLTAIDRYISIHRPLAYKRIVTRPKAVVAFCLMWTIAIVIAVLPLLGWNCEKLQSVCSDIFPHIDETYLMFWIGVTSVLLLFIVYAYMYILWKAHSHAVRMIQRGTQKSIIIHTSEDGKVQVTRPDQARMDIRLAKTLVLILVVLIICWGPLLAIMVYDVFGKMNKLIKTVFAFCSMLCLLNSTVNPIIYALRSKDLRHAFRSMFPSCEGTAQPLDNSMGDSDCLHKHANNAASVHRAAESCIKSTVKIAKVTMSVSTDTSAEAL
The assay is described as follows: Binding assay (in vitro), [3H]Win55212-2 displacement, membrane fractions of human CB1-CHO. Particulars: hCB1 expressed in CHO cells, [3H]Win55212-2 2 nM, 30° C. 90 minutes.
Method: (§1) Membrane fractions of human central type cannabinoid receptor (human CB1-CHO, hereinafter called hCB1) and human peripheral type cannabinoid receptor (human CB2-CHO, hereinafter called hCB2) expressed in CHO cells were used as samples. The reference material (hCB1: 20 μg/ml, hCB2: 5 μg/ml), labeled ligand ([^3H]Win55212-2, 2 nM) and unlabeled ligand Win55212-2 or test compound were added to a 24-well round bottom plate, and the plate was incubated at 30° C. for 90 minutes. 50 mM Tris-HB55 containing 0.2% BSA was used as an assay buffer. After incubation, the mixture was filtered (Packard, Unifilter 24GF/B) and dried, and then a scintillation solution (Packard, Microsint-20) was added thereto to determine the radioactivity of the sample (Packard, Top count A9912V). Nonspecific binding was determined by the addition of excessive amount of Win55212-2 (10 μM), and specific binding was calculated by subtracting the nonspecific binding from total binding determined by the addition of the labeled ligand only. The test compound was dissolved in DMSO to make the final concentration in DMSO to be 0.1%. IC50 value was determined from the proportion of the bound test compound in the specific binding, and K1 value of the test compound was calculated from the ICso value and Kd value of [^3H]Win55212-2. K1 value for the central type receptors/K1 value for peripheral type receptors (C/S) was also calculated as an indicator of the selectivity of the test compound for peripheral type receptors.

Assay [3] deals with T2, human peripheral type cannabinoid receptor (hCB2) (Homo sapiens, UniProt P34972).
T2 construct: expressed in transfected cells; host or cells: CHO cells
T2 sequence (P34972 whole entry): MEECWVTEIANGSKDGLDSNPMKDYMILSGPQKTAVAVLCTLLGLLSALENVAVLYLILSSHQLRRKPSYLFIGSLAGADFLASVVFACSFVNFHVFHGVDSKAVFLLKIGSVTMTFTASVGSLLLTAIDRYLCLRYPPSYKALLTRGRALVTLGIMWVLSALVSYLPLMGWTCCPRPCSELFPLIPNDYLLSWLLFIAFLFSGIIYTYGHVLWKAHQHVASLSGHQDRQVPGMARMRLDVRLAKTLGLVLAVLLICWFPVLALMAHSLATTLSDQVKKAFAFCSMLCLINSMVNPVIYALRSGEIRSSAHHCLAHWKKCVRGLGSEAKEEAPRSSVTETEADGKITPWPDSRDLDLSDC
The assay is described as follows: Binding assay (in vitro), [3H]Win55212-2 displacement, membrane fractions of human CB2-CHO. The following applies: for Ki: hCB2 expressed in CHO cells, [3H]Win55212-2 2 nM, 30° C. 90 minutes; for C/S (Ki central type receptors / Ki peripheral type receptors): indicator of selectivity for peripheral type receptors.
Method: as §1

[4] abbreviates: read-out: Ki value Central type receptor (C).
[5] abbreviates: Ki value Peripheral type receptor (S).
Setting [6] is: Ki value Central type receptor (C).
Where [7] appears, read: read-out: Ki value Peripheral type receptor (S).

In general, Ki refers to a dissociation constant, usually derived from enzyme kinetics or from competition with a known ligand. In the case of `CCCCCOc1c(OC)ccc2cc(C(=O)NCc3ccc4c(c3)OCO4)c(=O)[nH]c12` [Example 3-5, 7-Methoxy-2-oxo-8-pentyloxy-1,2-dihydroquinoline-3-carboxylic acid (3,4-methylenedioxybenzyl)amide], in assay [1], the ED50 was <0.10 mg/kg; p.o. For the same compound, the Ki in assay [2] (setting [4]) was 3440 nM.
With `CCCCCOc1c(OC)ccc2cc(C(=O)NCc3ccncc3)c(=O)[nH]c12` [Example 3-9, 7-methoxy-2-oxo-8-pentyloxy-1,2-dihydroquinoline-3-carboxylic acid (4-pyridyl methyl)amide], the ED50 in assay [1] was 0.58 mg/kg; p.o.
Still for that read-out and setting: next, `CCCCCOc1c(OC)ccc2cc(C(=O)NCCN3CCOCC3)c(=O)[nH]c12` [Example 3-11, 7-methoxy-2-oxo-8-pentyloxy-1,2-dihydroquinoline-3-carboxylic acid (2-morpholinoethyl)amide]: 0.40 mg/kg; p.o.
For the compound `CCCCOc1c(OC)ccc2cc(C(=O)NCCc3ccc(F)cc3)c(=O)[nH]c12` [Example 3-15, 8-butoxy-7-methoxy-2-oxo-1,2-dihydroquinoline-3-carboxylic acid [2-(4-fluorophenyl)ethyl]amide], the Ki in assay [3] (setting [5]) worked out at 0.016 nM; in assay [2] (setting [4]) it was 249 nM. In addition, in assay [3], the “C/S (Ki central type receptors / Ki peripheral type receptors)” value is listed as 15580. In assay [1], the ED50 is on record as 0.41 mg/kg; p.o.
`CCCCOc1c(OC)ccc2cc(C(=O)NCCc3ccncc3)c(=O)[nH]c12` [Example 3-17, 8-butoxy-7-methoxy-2-oxo-1,2-dihydroquinoline-3-carboxylic acid (2-pyridine-4-ylethyl)amide hydrochloride]: the Ki was 0.23 nM in assay [3] (setting [5]) and 199 nM in assay [2] (setting [4]). Also, the “C/S (Ki central type receptors / Ki peripheral type receptors)” value in assay [3] (hydrochloride) is recorded as 867. In addition, in assay [1], the ED50 is 1.39 mg/kg; p.o.
Turning to `CCCCCOc1c(OC)ccc2cc(C(=O)NCCc3ccc(Cl)cc3)c(=O)[nH]c12` [Example 3-22, 7-methoxy-2-oxo-8-pentyloxy-1,2-dihydroquinoline-3-carboxylic acid [2-(4-chlorophenyl)ethyl]amide], the values for the Ki in assay [3] (setting [5]) and in assay [2] (setting [6]) were 0.2 nM and 135 nM, respectively. Besides, the “C/S (Ki central type receptors / Ki peripheral type receptors)” value in assay [3] is given as 675. Besides, in assay [1], the ED50 is reported as 0.76 mg/kg; p.o.
With `CCCOc1c(OC)ccc2cc(C(=O)NCCc3ccncc3)c(=O)[nH]c12` [Example 3-26, 7-methoxy-2-oxo-8-propoxy-1,2-dihydroquinoline-3-carboxylic acid (2-pyridine-4-ylethyl)amide], the Ki in assay [3] (setting [7]) was 0.23 nM; in assay [2] (setting [4]) it was 648 nM. The “C/S (Ki central type receptors / Ki peripheral type receptors)” value in assay [3] is 2817. The ED60 in assay [1] is reported as 1.32 mg/kg; p.o.
As to `CCCOc1c(OC)ccc2cc(C(=O)NCCc3ccc(F)cc3)c(=O)[nH]c12` [Example 3-27, 7-methoxy-2-oxo-8-propoxy-1,2-dihydroquinoline-3-carboxylic acid [2-(4-fluorophenyl)ethyl]amide], the Ki came to 0.021 nM in assay [3] (setting [7]) and 336 nM in assay [2] (setting [4]). Further, the “C/S (Ki central type receptors / Ki peripheral type receptors)” value in assay [3] is listed as 15990. The ED60 in assay [1] is listed as 0.53 mg/kg; p.o.
With `CCCOc1c(OC)ccc2cc(C(=O)NCCc3ccccc3)c(=O)[nH]c12` [Example 3-30, 7-methoxy-2-oxo-8-propoxy-1,2-dihydroquinoline-3-carboxylic acid (2-phenylethyl)amide], affinity in assay [3] (setting [5]) was put at a Ki of 0.09 nM. Also, the “C/S (Ki central type receptors / Ki peripheral type receptors)” value in assay [3] was 1862. In addition, the ED60 in assay [1] is listed as 0.49 mg/kg; p.o.
As for `CCCCCOc1c(OC)ccc2cc(C(=O)NCCc3ccncc3)c(=O)n(C)c12` [Example 3-37, 1-methyl-7-methoxy-2-oxo-8-pentyloxy-1,2-dihydroquinoline-3-carboxylic acid (2-pyridine-4-ylethyl)amide], the Ki in assay [3] (setting [5]) turned out to be 0.75 nM; in assay [2] (setting [6]) it was 78 nM. The “C/S (Ki central type receptors / Ki peripheral type receptors)” value in assay [3] is given as 104. Moreover, the ED60 in assay [1] is listed as 0.63 mg/kg; p.o.
Turning to `CCCCCOc1c(OC)ccc2cc(C(=O)NCCN3CCOCC3)c(=O)n(C)c12` [Example 3-38, 1-methyl-7-methoxy-2-oxo-8-pentyloxy-1,2-dihydroquinoline-3-carboxylic acid (2-morpholinoethyl) amide], the Ki in assay [3] (setting [5]) was 0.085 nM; in assay [2] (setting [4]), 935 nM. For the same compound, the “C/S (Ki central type receptors / Ki peripheral type receptors)” value in assay [3] came out at 11002. Moreover, the ED60 in assay [1] is recorded as 2.24 mg/kg; p.o.
Take `CCCCCOc1c(OC)ccc2cc(C(=O)NCc3ccc4c(c3)OCO4)c(=O)n(C)c12` [Example 3-42, 1-methyl-7-methoxy-2-oxo-8-pentyloxy-1,2-dihydroquinoline-3-carboxylic acid (3,4-methylenedioxybenzyl) amide]: the Ki in assay [3] (setting [5]) was 0.22 nM; in assay [2] (setting [4]) it was 315 nM. In addition, the “C/S (Ki central type receptors / Ki peripheral type receptors)” value in assay [3] stood at 1430.
The like results for `CCCCCOc1cc2cc(C(=O)NCCc3ccc(F)cc3)c(=O)n(C)c2cc1OC` [Example 3-43, 1-methyl-7-methoxy-2-oxo-6-pentyloxy-1,2-dihydroquinoline-3-carboxylic acid [2-(4-fluorophenyl)ethyl]amide] were, in that order, 0.043 nM, 864 nM and 20093.
The like results for `CCCCCOc1cc2cc(C(=O)NCCN3CCOCC3)c(=O)n(C)c2cc1OC` [Example 3-44, 1-methyl-7-methoxy-2-oxo-6-pentyloxy-1,2-dihydroquinoline-3-carboxylic acid (2-morpholinoethyl)amide] were, in that order, 0.18 nM, 193 nM and 1075.
The like results for `CCCCCOc1cc2cc(C(=O)NCc3ccc4c(c3)OCO4)c(=O)n(C)c2cc1OC` [Example 3-45, 1-methyl-7-methoxy-2-oxo-6-pentyloxy-1,2-dihydroquinoline-3-carboxylic acid (3,4-methylenedioxybenzyl)amide] were, in that order, 0.032 nM, 381 nM and 11902.
Turning to `CCCCCOc1ccc2cc(C(=O)NCCc3ccc(F)cc3)c(=O)[nH]c2c1OCCCCC` [Example 3-46, 7,8-dipentyloxy-2-oxo-1,2-dihydroquinoline-3-carboxylic acid [2-(4-fluorophenyl)ethyl]amide], the results for the Ki in assay [3] (setting [5]) and in assay [2] (setting [6]) were 0.026 nM and 228 nM, respectively. Besides, the “C/S (Ki central type receptors / Ki peripheral type receptors)” value in assay [3] stood at 8776.
With `CCCCOc1c(OC)ccc2cc(CO)c(=O)[nH]c12` [Example 5-1, 8-butoxy-3-hydroxy methyl-7-methoxy-2-oxo-1,2-dihydroquinoline], the Ki in assay [3] (setting [7]) was 0.45 nM; in assay [2] (setting [4]) it was 686 nM.
As to `CCOc1c(OC)ccc2cc(CO)c(=O)[nH]c12` [Example 5-2, 8-ethoxy-3-hydroxymethyl-7-methoxy-2-oxo-1,2-dihydroquinoline], the figures for the Ki in assay [3] (setting [7]) and in assay [2] (setting [4]) were 0.055 nM and 122 nM, respectively. For the same compound, in assay [3], the “C/S (Ki central type receptors / Ki peripheral type receptors)” value turned out to be 2219.
On to `CCCCOc1c(OC)ccc2cc(COC(=O)Nc3ccc(F)cc3)c(=O)[nH]c12` [Example 6-1, N-(4-fluorophenyl)carbamic acid (8-butoxy-7-methoxy-2-oxo-1,2-dihydroquinoline-3-yl)methyl ester], for which the Ki in assay [3] (setting [7]) is 0.045 nM; in assay [2] (setting [4]) it was 703 nM. The “C/S (Ki central type receptors / Ki peripheral type receptors)” value in assay [3] turned out to be 15612.
The like results for `CCOc1c(OC)ccc2cc(COC(=O)Nc3ccncc3)c(=O)[nH]c12` [Example 6-2, N-pyridine-4-ylcarbamic acid (8-ethoxy-7-methoxy-2-oxo-1,2-dihydroquinoline-3-yl)methyl ester] were, in that order, 0.034 nM, 437 nM and 12866.
For `CCOc1c(OC)ccc2cc(CN(C)C)c(=O)[nH]c12` [Example 7-1, 3-dimethyl aminomethyl-8-ethoxy-7-methoxy-2-oxo-1,2-dihydroquinoline], the Ki in assay [3] (setting [7]) is 0.17 nM; in assay [2] (setting [4]), 3640 nM. For the same compound, the “C/S (Ki central type receptors / Ki peripheral type receptors)” value in assay [3] was 21432.
Regarding `CCOc1c(OC)ccc2cc(CN3CCOCC3)c(=O)[nH]c12` [Example 7-3, 8-ethoxy-7-methoxy-3-morpholinomethyl-2-oxo-1,2-dihydroquinoline], the Ki in assay [3] (setting [7]) is 0.062 nM; in assay [2] (setting [4]) it was 666 nM. Also, the “C/S (Ki central type receptors / Ki peripheral type receptors)” value in assay [3] is recorded as 10735.
For the compound `CCCCOc1c(OC)ccc2cc(CNC(=O)Nc3ccc(F)cc3)c(=O)[nH]c12` [Example 8-1, N-[(8-butoxy-7-methoxy-2-oxo-1,2-dihydroquinoline-3-yl)methyl]-N′-(4-fluorophenyl)urea], the inhibitory constant (Ki) is 0.44 nM in assay [3] (setting [7]) and 440 nM in assay [2] (setting [4]). Moreover, the “C/S (Ki central type receptors / Ki peripheral type receptors)” value in assay [3] is 1000.
On to `CCCCOc1c(OC)ccc2cc(CNC(=O)Cc3ccc(O)cc3)c(=O)[nH]c12` [Example 8-2, N-[(8-butoxy-7-methoxy-2-oxo-1,2-dihydroquinoline-3-yl)methyl]-(4-hydroxyphenyl)acetamide], for which the Ki was found to be 0.27 nM in assay [3] (setting [5]) and 727 nM in assay [2] (setting [4]). In addition, the “C/S (Ki central type receptors / Ki peripheral type receptors)” value in assay [3] worked out at 2692.
